# Where two headings read alike, the source gives them in different places.
# Experiment: Kinetic study: plasma kinetics of TMC278 after single IM or SC injection of a nanosuspension;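 further: healthy male beagle dogs injected in both biceps femoris muscles (IM) or both thoracal sides (SC), total volume 0.2 mL/kg, drug measured in plasma from blood samples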
# Format: in vivo, male beagle dogs
# Conditions: 5 mg/kg; for AUC(0-t) / Cmax / Tmax / concentration at 0 h / concentration at 1 h / concentration at 3 h / concentration at 8 h / concentration at 24 h / concentration at 48 h / concentration at 72 h / concentration at 144 h / concentration at 192 h / concentration at 240 h / concentration at 312 h / concentration at 384 h / concentration at 480 h / concentration at 648 h / concentration at 696 h / concentration at 864 h / concentration at 1032 h / concentration at 1200 h / concentration at 1368 h / concentration at 1536 h / concentration at 1704 h / concentration at 1872 h / concentration at 2040 h / concentration at 2208 h: male, beagle, dog, plasma; for AUC(0-t) / Cmax / Tmax: im, single IM 5 mg/kg TMC278 nanosuspension; for Cmax: read-out: Cmax; for Tmax: read-out: Tmax; for concentration at 0 h / concentration at 1 h / concentration at 3 h / concentration at 8 h / concentration at 24 h / concentration at 48 h / concentration at 72 h / concentration at 144 h / concentration at 192 h / concentration at 240 h / concentration at 312 h / concentration at 384 h / concentration at 480 h / concentration at 648 h / concentration at 696 h / concentration at 864 h / concentration at 1032 h / concentration at 1200 h / concentration at 1368 h / concentration at 1536 h / concentration at 1704 h / concentration at 1872 h / concentration at 2040 h / concentration at 2208 h: intramuscular, plasma concentration of TMC278, single IM 5 mg/kg TMC278 nanosuspension
# Method: Six healthy male beagle dogs with body weights ranging from 8 to 16 kg at the start of the study, were used. Each dog was identified by an ear tattoo number. Two dogs were dosed intramuscularly (IM) in the left and right m. biceps femoris (treatment group A). […] Two dogs were dosed subcutaneously (SC) in the left and right thoracal region. The injection volume was 2×0.1 ml/kg in all treatment groups. A 20 G needle was used.
# Blood samples of 3 ml were taken from the left jugular vein from all dogs on day 0 at 0 h (predose), 20 min, 1 h, 3 h, 8 h and 24 h post-dose and further on days 2, 3, 6, 8, 10, 13, 16, 20, 23, 27, 29, 36, 43, 50, 57, 64, 71, 78, 85 and 92 at approximately 8 AM. Blood samples were placed on EDTA, EDTA Vacuette Greiner, Cat. No. 454086, Greiner Labortechnik N.V.). Within 2 h of blood sampling, samples were centrifuged at room temperature at about 1900×g for 10 minutes to allow plasma separation. Plasma was immediately transferred into a second tube and stored in the freezer within 2 hours after the start of centrifugation.
compound,measurement,setting,value
"Cc1cc(C=CC#N)cc(C)c1Nc1ccnc(Nc2ccc(C#N)cc2)n1 [TMC278, 4-[[4-[[4-(2-cyanoethenyl)-2,6-dimethylphenyl]amino]-2-pyrimidinyl]amino]benzonitrile]",blood plasma levels after injection (in words),"injectable formulation of nanonised substance, male beagle dogs",stable blood plasma levels during a prolonged period of time
same,AUC(0-t),"dog 17264, read-out: AUC0-312 h",27400 ng·h/mL
same,AUC(0-t),"dog 17264, read-out: AUC0-696 h",34800 ng·h/mL
same,AUC(0-t),"dog 17264, read-out: AUC0-2208 h",40500 ng·h/mL
same,Cmax,dog 17264,159 ng/mL
same,Tmax,dog 17264,48 h
same,AUC(0-t),"dog 18186, read-out: AUC0-312 h",26600 ng·h/mL
same,AUC(0-t),"dog 18186, read-out: AUC0-696 h",33000 ng·h/mL
same,AUC(0-t),"dog 18186, read-out: AUC0-2208 h",38200 ng·h/mL
same,Cmax,dog 18186,186 ng/mL
same,AUC(0-t),"mean of 2 dogs, read-out: AUC0-312 h",27000 ng·h/mL
same,AUC(0-t),"mean of 2 dogs, read-out: AUC0-696 h",33900 ng·h/mL
same,AUC(0-t),"mean of 2 dogs, read-out: AUC0-2208 h",39400 ng·h/mL
same,Cmax,mean of 2 dogs,173 ng/mL
same,Tmax,mean of 2 dogs,24 h
same,concentration at 0 h,"dog 17264, 0 h (d0, predose)",< 1 ng/mL
same,concentration at 1 h,"dog 17264, 1 h",110 ng/mL
same,concentration at 3 h,"dog 17264, 3 h",131 ng/mL
same,concentration at 8 h,"dog 17264, 8 h",130 ng/mL
same,concentration at 24 h,"dog 17264, 24 h (d1)",150 ng/mL
same,concentration at 48 h,"dog 17264, 48 h (d2)",159 ng/mL
same,concentration at 72 h,"dog 17264, 72 h (d3)",115 ng/mL
same,concentration at 144 h,"dog 17264, 144 h (d6)",86.2 ng/mL
same,concentration at 192 h,"dog 17264, 192 h (d8)",72.4 ng/mL
same,concentration at 240 h,"dog 17264, 240 h (d10)",56.7 ng/mL
same,concentration at 312 h,"dog 17264, 312 h (d13)",33.4 ng/mL
same,concentration at 384 h,"dog 17264, 384 h (d16)",23.9 ng/mL
same,concentration at 480 h,"dog 17264, 480 h (d20)",20.5 ng/mL
same,concentration at 648 h,"dog 17264, 648 h (d27)",11.4 ng/mL
same,concentration at 696 h,"dog 17264, 696 h (d29)",11.3 ng/mL
same,concentration at 864 h,"dog 17264, 864 h (d36)",7.33 ng/mL
same,concentration at 1032 h,"dog 17264, 1032 h (d43)",5.19 ng/mL
same,concentration at 1200 h,"dog 17264, 1200 h (d50)",3.4 ng/mL
same,concentration at 1368 h,"dog 17264, 1368 h (d57)",3 ng/mL
same,concentration at 1536 h,"dog 17264, 1536 h (d64)",2.84 ng/mL
same,concentration at 1704 h,"dog 17264, 1704 h (d71)",2.48 ng/mL
same,concentration at 1872 h,"dog 17264, 1872 h (d78)",1.79 ng/mL
same,concentration at 2040 h,"dog 17264, 2040 h (d85)",1.99 ng/mL
same,concentration at 2208 h,"dog 17264, 2208 h (d92)",1.56 ng/mL
same,concentration at 0 h,"dog 18186, 0 h (d0, predose)",< 1 ng/mL
same,concentration at 1 h,"dog 18186, 1 h",82.6 ng/mL
same,concentration at 3 h,"dog 18186, 3 h",145 ng/mL
same,concentration at 8 h,"dog 18186, 8 h",136 ng/mL
same,concentration at 24 h,"dog 18186, 24 h (d1)",120 ng/mL
same,concentration at 48 h,"dog 18186, 48 h (d2)",132 ng/mL
same,concentration at 72 h,"dog 18186, 72 h (d3)",99.6 ng/mL
same,concentration at 144 h,"dog 18186, 144 h (d6)",91.9 ng/mL
same,concentration at 192 h,"dog 18186, 192 h (d8)",75.5 ng/mL
same,concentration at 240 h,"dog 18186, 240 h (d10)",62.5 ng/mL
same,concentration at 312 h,"dog 18186, 312 h (d13)",38 ng/mL
same,concentration at 384 h,"dog 18186, 384 h (d16)",20.6 ng/mL
same,concentration at 480 h,"dog 18186, 480 h (d20)",16.6 ng/mL
same,concentration at 648 h,"dog 18186, 648 h (d27)",9.08 ng/mL
same,concentration at 696 h,"dog 18186, 696 h (d29)",11.2 ng/mL
same,concentration at 864 h,"dog 18186, 864 h (d36)",6.44 ng/mL
same,concentration at 1032 h,"dog 18186, 1032 h (d43)",5.18 ng/mL
same,concentration at 1200 h,"dog 18186, 1200 h (d50)",3.25 ng/mL
same,concentration at 1368 h,"dog 18186, 1368 h (d57)",3 ng/mL
same,concentration at 1536 h,"dog 18186, 1536 h (d64)",2.44 ng/mL
same,concentration at 1704 h,"dog 18186, 1704 h (d71)",1.84 ng/mL
same,concentration at 1872 h,"dog 18186, 1872 h (d78)",1.45 ng/mL
same,concentration at 2040 h,"dog 18186, 2040 h (d85)",1.61 ng/mL
same,concentration at 2208 h,"dog 18186, 2208 h (d92)",1.25 ng/mL
same,concentration at 0 h,"mean of 2 dogs, 0 h (d0, predose)",< 1 ng/mL
same,concentration at 1 h,"mean of 2 dogs, 1 h",96.3 ng/mL
same,concentration at 3 h,"mean of 2 dogs, 3 h",138 ng/mL
same,concentration at 8 h,"mean of 2 dogs, 8 h",133 ng/mL
same,concentration at 24 h,"mean of 2 dogs, 24 h (d1)",135 ng/mL
same,concentration at 48 h,"mean of 2 dogs, 48 h (d2)",146 ng/mL
same,concentration at 72 h,"mean of 2 dogs, 72 h (d3)",107 ng/mL
same,concentration at 144 h,"mean of 2 dogs, 144 h (d6)",89.1 ng/mL
same,concentration at 192 h,"mean of 2 dogs, 192 h (d8)",74 ng/mL
same,concentration at 240 h,"mean of 2 dogs, 240 h (d10)",59.6 ng/mL
same,concentration at 312 h,"mean of 2 dogs, 312 h (d13)",35.7 ng/mL
same,concentration at 384 h,"mean of 2 dogs, 384 h (d16)",22.3 ng/mL
same,concentration at 480 h,"mean of 2 dogs, 480 h (d20)",18.6 ng/mL
same,concentration at 648 h,"mean of 2 dogs, 648 h (d27)",10.2 ng/mL
same,concentration at 696 h,"mean of 2 dogs, 696 h (d29)",11.3 ng/mL
same,concentration at 864 h,"mean of 2 dogs, 864 h (d36)",6.89 ng/mL
same,concentration at 1032 h,"mean of 2 dogs, 1032 h (d43)",5.19 ng/mL
same,concentration at 1200 h,"mean of 2 dogs, 1200 h (d50)",3.33 ng/mL
same,concentration at 1368 h,"mean of 2 dogs, 1368 h (d57)",3 ng/mL
same,concentration at 1536 h,"mean of 2 dogs, 1536 h (d64)",2.64 ng/mL
same,concentration at 1704 h,"mean of 2 dogs, 1704 h (d71)",2.16 ng/mL
same,concentration at 1872 h,"mean of 2 dogs, 1872 h (d78)",1.62 ng/mL
same,concentration at 2040 h,"mean of 2 dogs, 2040 h (d85)",1.8 ng/mL
same,concentration at 2208 h,"mean of 2 dogs, 2208 h (d92)",1.41 ng/mL

# Source: US11389447B2 (Janssen Sciences Ireland Unlimited Company, priority 2006, dated 2022)
